Read-outs that look alike come from different tables or passages of the source.
Experiments:
[1] = tested on: MC38 MDOTS; test: Live/dead (AO/PI) imaging of MC38 MDOTS in 3D microfluidic culture; assay type: cell-based, murine; conditions: Cmpd1 (1 μM) + αPD-1; did not reach significance vs single-agent PD-1
Procedure: (§1) Fresh tumor specimens (murine and human patients) were received in media (DMEM) on ice and minced in a 10 cm dish (on ice) using sterile forceps and scalpel. Minced tumor was resuspended in DMEM ([…], […] sodium pyruvate, 1:100 penicillin-streptomycin) (Corning CellGro, Manassas, Va.) +10% FBS (Gemini Bio-Products, West Sacramento, Calif.), 100 U/mL collagenase type IV (Life Technologies, Carlsbad, Calif.), and 15 mM HEPES (Life Technologies, Carlsbad, Calif.), except for CT26 tumors that were prepared in RPMI. Samples were pelleted and resuspended in 10-20 mL media. Red blood cells were removed from visibly bloody samples using RBC Lysis Buffer (Boston Bio-Products, Ashland, Mass.). […]
(§2) Dual labeling was performed by loading microfluidic device with Nexcelom ViaStain™ AO/PI Staining Solution (Nexcelom, CS2-0106). Following incubation with the dyes (20 minutes at room temperature in the dark), images were captured on a Nikon Eclipse 80i fluorescence microscope equipped with Z-stack (Prior) and CoolSNAP CCD camera (Roper Scientific). […] Live and dead cell quantitation was performed by measuring total cell area of each dye. […]

[2] = tested on: CT26 MDOTS; test: Live/dead (AO/PI) imaging of CT26 MDOTS in 3D microfluidic culture; assay type: cell-based, murine; conditions: Cmpd1 (1 μM) + αPD-1, 6 days
Procedure: as §1, §2

[3] = target: off-target kinases (Homo sapiens, UniProt P00533, DEL746-750); test: SelectScreen Kinase Profiling, single point inhibition and IC50 for off-target kinases; assay type: biochemical; parameters: other: EGFR (ErbB1) d746-750; mutant y; 1000 μM; conditions: EGFR (ErbB1) d746-750, mutant y, LanthaScreen Binding
Procedure: Biochemical single point inhibition and IC50 concentrations for TBK1, IKKε (IKBKE), and off-target kinases were determined at ThermoFisher Scientific using SelectScreen Kinase Profiling Services (Madison, Wis., USA) (Tables S4A and S4B-1-7). To determine cellular potency, the human colorectal cancer carcinoma cell line HCT116 (ATCC, Manassas, Va.) was maintained in T175 flasks in complete RPMI medium; RPMI 1640 supplemented with 10% FBS, 1× Penicillin-Streptomycin solution and 1×MEM (non-essential amino acids). HCT116 cells were grown to 90-95% confluency in T175 flasks containing complete RPMI medium and transfected in bulk using Lipofectamine 2000 (Invitrogen, Carlsbad, Calif.) with 70 μg of ISG54-luciferase reporter plasmid (Elim Biopharmaceuticals Inc., Hayward, Calif.). The reporter plasmid contains a luciferase gene expression cassette under the transcriptional regulation of the promoter of the human interferon stimulated gene 54 (ISG54). […] The assay plates were incubated for 5 hours at 37° C., followed by addition of One-Glo luciferase firefly reagent (Promega, Madison, Wis.) at 1:1 volume/well and luminescence was measured in an EnVision Multilabel Plate Reader (PerkinElmer, Santa Clara, Calif.). The EC50 values were calculated from the fit of the dose-response curves to a four-parameter equation. […]

off-target kinases, sequence (P00533 with tags, fused parts or gaps DEL746-750): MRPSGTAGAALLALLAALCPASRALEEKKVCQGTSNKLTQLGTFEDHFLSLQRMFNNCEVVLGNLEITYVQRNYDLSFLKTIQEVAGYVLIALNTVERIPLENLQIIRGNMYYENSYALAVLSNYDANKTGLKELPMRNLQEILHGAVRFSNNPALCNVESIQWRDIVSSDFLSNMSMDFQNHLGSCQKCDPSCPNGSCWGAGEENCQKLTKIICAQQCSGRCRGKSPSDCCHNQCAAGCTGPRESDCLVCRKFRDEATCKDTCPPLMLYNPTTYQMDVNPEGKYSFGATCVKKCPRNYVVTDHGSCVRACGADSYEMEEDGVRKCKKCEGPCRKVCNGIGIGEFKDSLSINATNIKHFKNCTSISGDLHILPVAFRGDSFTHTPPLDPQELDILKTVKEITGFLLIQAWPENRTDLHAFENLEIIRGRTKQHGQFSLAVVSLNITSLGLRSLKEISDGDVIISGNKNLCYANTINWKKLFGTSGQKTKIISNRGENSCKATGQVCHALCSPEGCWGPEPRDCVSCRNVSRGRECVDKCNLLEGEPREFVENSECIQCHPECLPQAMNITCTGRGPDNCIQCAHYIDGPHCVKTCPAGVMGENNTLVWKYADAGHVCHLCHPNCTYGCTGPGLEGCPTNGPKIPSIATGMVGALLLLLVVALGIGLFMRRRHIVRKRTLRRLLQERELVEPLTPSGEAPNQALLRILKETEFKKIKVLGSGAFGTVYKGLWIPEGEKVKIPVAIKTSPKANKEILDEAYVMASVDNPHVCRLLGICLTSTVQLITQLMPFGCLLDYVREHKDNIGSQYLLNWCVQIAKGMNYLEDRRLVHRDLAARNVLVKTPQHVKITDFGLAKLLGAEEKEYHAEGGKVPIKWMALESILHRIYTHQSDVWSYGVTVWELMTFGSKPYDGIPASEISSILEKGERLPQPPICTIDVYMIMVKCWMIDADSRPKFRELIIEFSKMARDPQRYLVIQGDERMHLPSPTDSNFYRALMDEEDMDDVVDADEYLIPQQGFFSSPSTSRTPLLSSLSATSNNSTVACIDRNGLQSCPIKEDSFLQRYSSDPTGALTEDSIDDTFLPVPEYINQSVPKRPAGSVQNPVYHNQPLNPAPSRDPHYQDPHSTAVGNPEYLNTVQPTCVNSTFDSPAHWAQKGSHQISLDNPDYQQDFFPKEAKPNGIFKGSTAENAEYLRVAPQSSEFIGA

In the case of `N#Cc1cc(-c2ncnc(Nc3ccc(N4CCN(C5COC5)CC4)cc3)n2)ccc1OC1CCOCC1` [Compound 1, 5-(4-((4-(4-(oxetan-3-yl)piperazin-1-yl)phenyl)amino)-1,3,5-triazin-2-yl)-2-((tetrahydro-2H-pyran-4-yl)oxy)benzonitrile], the “ex vivo killing of MC38 MDOTS, combination treatment” value [1] is reported as “enhanced ex vivo killing”, the “killing of CT26 MDOTS, ex vivo combination treatment” value [2] is reported as “enhanced killing” and the inhibition ([3]; read-out: % Inhibition 1) is reported as 14%. The inhibition ([3]; read-out: % Inhibition 2) was 13%.

Reference: patent publication US11572590B2, “Methods for evaluating tumor cell spheroids using 3D microfluidic cell culture device” (Dana-Farber Cancer Institute, Inc., priority 2017, dated 2023)
